What follows are compounds tested against HPK1 (Homo sapiens (Human), UniProt Q92918) (assay: HPK1 Inhibition Assay (ADP-Glo kinase assay)). Details: ATP 10 μM.
Type: biochemical
Outline: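 ADP-Glo luminescence read-out after 1 h room-temperature kinase reaction with 10 μM ATP and 0.1 μg/ml MBP. Recombinant human HPK1 at 7.5 ng/μl; buffer 40 mM Tris pH 7.5, 20 mM MgCl2. Compounds serially diluted 5-fold over 10 points from 10 mM DMSO stock.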

Sequence of HPK1 (Q92918 1-346 limits assumed): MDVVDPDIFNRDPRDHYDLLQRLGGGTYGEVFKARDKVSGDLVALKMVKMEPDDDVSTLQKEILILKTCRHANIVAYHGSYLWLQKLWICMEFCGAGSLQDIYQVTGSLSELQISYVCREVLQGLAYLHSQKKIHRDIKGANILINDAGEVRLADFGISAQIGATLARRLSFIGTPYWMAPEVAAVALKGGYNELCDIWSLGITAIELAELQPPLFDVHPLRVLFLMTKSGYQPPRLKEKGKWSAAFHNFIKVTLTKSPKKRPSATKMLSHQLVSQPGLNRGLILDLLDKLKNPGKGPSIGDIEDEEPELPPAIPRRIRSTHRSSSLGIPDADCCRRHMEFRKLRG

IC50 [nM] | SMILES
< 100 | N[C@@H]1CCN(c2c(NC(=O)c3ccc(=O)n(-c4c(F)cccc4F)n3)ccc3c2cnn3C2CC2)C1 [Example 301, (R)-N-(4-(3-aminopyrrolidin-1-yl)-1-cyclopropyl-1H-indazol-5-yl)-1-(2,6-difluorophenyl)-6-oxo-1,6-dihydropyridazine-3-carboxamide]
< 100 | C[C@@H]1CN(c2c(NC(=O)c3ccc(=O)n(-c4c(F)cccc4F)n3)ccc3c2cnn3C2CC2)C[C@@H]1N [Example 298, N-[4-[(3R,4R)-3-amino-4-methyl-pyrrolidin-1-yl]-1-cyclopropyl-indazol-5-yl]-1-(2,6-difluorophenyl)-6-oxo-pyridazine-3-carboxamide]
< 100 | COCCn1ncc2c(N3CCC(N)CC3)c(NC(=O)c3ccc(=O)n(-c4c(F)cccc4F)n3)cc(F)c21 [Example 284, N-(4-(4-aminopiperidin-1-yl)-7-fluoro-1-(2-methoxyethyl)-1H-indazol-5-yl)-1-(2,6-difluorophenyl)-6-oxo-1,6-dihydropyridazine-3-carboxamide]
< 100 | COCCn1ncc2c(N3CC[C@@H](N)C3)c(NC(=O)c3ccc(=O)n(-c4c(F)cccc4F)n3)cc(F)c21 [Example 293, (R)-N-(4-(3-aminopyrrolidin-1-yl)-7-fluoro-1-(2-methoxyethyl)-1H-indazol-5-yl)-1-(2,6-difluorophenyl)-6-oxo-1,6-dihydropyridazine-3-carboxamide]
< 100 | COCCn1ncc2c(N3CC[C@@H](N)C3)c(NC(=O)c3ccc(=O)n(-c4c(F)cccc4F)n3)ccc21 [Example 285, (R)-N-(4-(3-aminopyrrolidin-1-yl)-1-(2-methoxyethyl)-1H-indazol-5-yl)-1-(2,6-difluorophenyl)-6-oxo-1,6-dihydropyridazine-3-carboxamide]
< 100 | CC(C)C(C)(C)n1cc2c(N3C[C@@H](C)[C@@H](N)C3)c(NC(=O)c3ccc(=O)n(-c4c(F)cccc4F)n3)ccc2n1 [Example 247, N-(4-((3R,4R)-3-amino-4-methylpyrrolidin-1-yl)-2-(2,3-dimethylbutan-2-yl)-2H-indazol-5-yl)-1-(2,6-difluorophenyl)-6-oxo-1,6-dihydropyridazine-3-carboxamide]
< 100 | N#Cc1ccncc1-c1ccc(NC(=O)c2ccc(=O)n(-c3c(F)cccc3F)n2)c(N2CC[C@H](N)C2)c1 [Example 344, (S)-N-(2-(3-aminopyrrolidin-1-yl)-4-(4-cyanopyridin-3-yl)phenyl)-1-(2,6-difluorophenyl)-6-oxo-1,6-dihydropyridazine-3-carboxamide]
< 100 | CC(C)(C)n1cc2c(N3CCC[C@@H](N)C3)c(NC(=O)c3ccc(=O)n(-c4c(F)cccc4F)n3)ccc2n1 [Example 239, (R)-N-(4-(3-aminopiperidin-1-yl)-2-(tert-butyl)-2H-indazol-5-yl)-1-(2,6-difluorophenyl)-6-oxo-1,6-dihydropyridazine-3-carboxamide]

Continued, compound first:

SMILES | IC50 [nM]
COc1cccc(F)c1-n1cccc(C(=O)Nc2cc(F)ccc2N2C[C@H]3C[C@@H]2CN3)c1=O [Example 51, N-(2-((1R,4R)-2,5-diazabicyclo[2.2.1]heptan-2-yl)-5-fluorophenyl)-1-(2-fluoro-6-methoxyphenyl)-2-oxo-1,2-dihydropyridine-3-carboxamide] | < 100
Cn1c(C(C)(C)C)nc2c(N3CC[C@@](C)(N)C3)c(NC(=O)c3ccc(=O)n(-c4c(F)cccc4F)n3)ccc21 (single isomer, unassigned) [Example 101] | < 100
COc1ccc(F)c(F)c1-c1nccc(C(=O)Nc2cc(F)ccc2N2C[C@H]3C[C@@H]2CN3)c1F [Example 5, N-(2-((1R,4R)-2,5-diazabicyclo[2.2.1]heptan-2-yl)-5-fluorophenyl)-2-(2,3-difluoro-6-methoxyphenyl)-3-fluoroisonicotinamide] | < 100
Cn1c(CC(F)(F)F)nc2c(N3CC[C@@H](N)C3)c(NC(=O)c3ccc(=O)n(-c4c(F)cccc4F)n3)ccc21 [Example 156, (R)-N-(4-(3-aminopyrrolidin-1-yl)-1-methyl-2-(2,2,2-trifluoroethyl)-1H-benzo[d]imidazol-5-yl)-1-(2,6-difluorophenyl)-6-oxo-1,6-dihydropyridazine-3-carboxamide] | < 100
Cc1nc2c(N3CCN(C)CC3)c(NC(=O)c3ccc(=O)n(-c4c(F)cccc4F)n3)ccc2n1C [Example 69, 1-(2,6-difluorophenyl)-N-(1,2-dimethyl-4-(4-methylpiperazin-1-yl)-1H-benzo[d]imidazol-5-yl)-6-oxo-1,6-dihydropyridazine-3-carboxamide] | 100 to 1000
CC[C@@H]1CN(c2c(NC(=O)c3ccc(=O)n(-c4c(F)cccc4F)n3)ccc3c2cnn3C(C)C)C[C@@H]1N (single isomer, unassigned) [Example 197] | < 100
CC(C)n1ncc2c(N3CCC[C@@H](N)C3)c(NC(=O)c3ccc(=O)n(-c4c(F)cccc4F)n3)ccc21 [Example 183, (R)-N-(4-(3-aminopiperidin-1-yl)-1-isopropyl-1H-indazol-5-yl)-1-(2,6-difluorophenyl)-6-oxo-1,6-dihydropyridazine-3-carboxamide] | < 100
CC(C)n1cc2c(N3C[C@H](N)C(C)(C)C3)c(NC(=O)c3ccc(=O)n(-c4c(F)cccc4F)n3)ccc2n1 [Example 227, (R)-N-(4-(4-amino-3,3-dimethylpyrrolidin-1-yl)-2-isopropyl-2H-indazol-5-yl)-1-(2,6-difluorophenyl)-6-oxo-1,6-dihydropyridazine-3-carboxamide] | < 100
Cc1nc2c(N3CCC(N)C(F)(F)C3)c(NC(=O)c3ccc(=O)n(-c4c(F)cccc4F)n3)ccc2n1C (stereo not drawn) [Example 95, N-(4-(4-amino-3,3-difluoropiperidin-1-yl)-1,2-dimethyl-1H-benzo[d]imidazol-5-yl)-1-(2,6-difluorophenyl)-6-oxo-1,6-dihydropyridazine-3-carboxamide] | < 100
CC(C)n1cc2c(N3CCC(N)CC3)c(NC(=O)c3ccc(=O)n(-c4c(F)cccc4F)n3)ccc2n1 [Example 230, N-(4-(4-aminopiperidin-1-yl)-2-isopropyl-2H-indazol-5-yl)-1-(2,6-difluorophenyl)-6-oxo-1,6-dihydropyridazine-3-carboxamide] | < 100
Cc1nc2c(N3CC[C@H](N)C3)c(NC(=O)c3ccc(=O)n(-c4c(Cl)cccc4Cl)n3)ccc2n1C [Example 107, (S)—N-(4-(3-aminopyrrolidin-1-yl)-1,2-dimethyl-1H-benzo[d]imidazol-5-yl)-1-(2,6-dichlorophenyl)-6-oxo-1,6-dihydropyridazine-3-carboxamide] | 100 to 1000
CC(C)c1nc2c(N3CC(F)(F)C[C@H]3CN)c(NC(=O)c3ccc(=O)n(-c4c(F)cccc4F)n3)ccc2n1C [Example 141, (S)-N-(4-(2-(aminomethyl)-4,4-difluoropyrrolidin-1-yl)-2-isopropyl-1-methyl-1H-benzo[d]imidazol-5-yl)-1-(2,6-difluorophenyl)-6-oxo-1,6-dihydropyridazine-3-carboxamide] | < 100
CC(C)c1nc2c(N3C[C@H](N)C4(COC4)C3)c(NC(=O)c3ccc(=O)n(-c4c(F)cccc4F)n3)ccc2n1C [Example 113, (R)-N-(4-(8-amino-2-oxa-6-azaspiro[3.4]octan-6-yl)-2-isopropyl-1-methyl-1H-benzo[d]imidazol-5-yl)-1-(2,6-difluorophenyl)-6-oxo-1,6-dihydropyridazine-3-carboxamide] | < 100

Source: patent US20250122174A1 (Shenzhen Yuanli Shenwan Innovative Medicine Co., Ltd., priority 2022, published 2025)
